From ChEMBL document CHEMBL1128591, “1,2-Diarylcyclopentenes as selective cyclooxygenase-2 inhibitors and orally active anti-inflammatory agents” (J Med Chem, 1995) come the findings set out here.

For orientation: IC50 means the concentration that inhibits the measured activity by half. Low readings indicate inhibition by little substance, high ones a need for much substance.

The species named for assay [1] is Rattus norvegicus. In words: animal or person. The following applies: read-out: Inhibition.
Assay [2] is filed under the species Rattus norvegicus. In words: animal or person. The following applies: read-out: Inhibition. The source holds these as a separate data set.
Assay [3] deals with Prostaglandin G/H synthase 1 (Homo sapiens, UniProt P23219).
Sequence of Prostaglandin G/H synthase 1 (P23219 whole entry): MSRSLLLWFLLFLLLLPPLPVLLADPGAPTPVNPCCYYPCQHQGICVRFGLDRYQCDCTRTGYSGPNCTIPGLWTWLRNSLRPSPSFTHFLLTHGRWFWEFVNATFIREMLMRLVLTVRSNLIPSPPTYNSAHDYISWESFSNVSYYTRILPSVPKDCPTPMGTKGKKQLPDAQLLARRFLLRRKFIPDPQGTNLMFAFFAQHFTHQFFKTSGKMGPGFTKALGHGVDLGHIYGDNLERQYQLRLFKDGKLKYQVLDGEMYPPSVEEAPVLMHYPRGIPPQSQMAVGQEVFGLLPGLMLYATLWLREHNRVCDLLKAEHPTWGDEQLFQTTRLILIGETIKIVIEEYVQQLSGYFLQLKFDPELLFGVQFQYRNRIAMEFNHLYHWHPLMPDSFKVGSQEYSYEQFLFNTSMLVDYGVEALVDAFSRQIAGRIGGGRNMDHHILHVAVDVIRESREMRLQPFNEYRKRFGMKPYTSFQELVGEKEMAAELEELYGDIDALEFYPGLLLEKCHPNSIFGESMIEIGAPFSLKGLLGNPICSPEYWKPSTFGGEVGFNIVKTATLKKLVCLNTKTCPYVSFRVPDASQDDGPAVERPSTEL

As to `COc1ccc(C2=C(c3ccc(S(C)(=O)=O)cc3)CCC2)cc1`, in the assay listed under Rattus norvegicus [1], the inhibition in vivo at 30 mg/kg is 42.7%. The inhibition in vivo at 1 mg/kg in the assay filed under Rattus norvegicus [2] was 0%. With `CN(C)c1ccc(C2=C(c3ccc(S(C)(=O)=O)cc3)CCC2)cc1Cl`, half-maximal inhibition in assay [3] (IC50) was put at 37.7 µM.

The compound `NS(=O)(=O)c1ccc(C2=C(c3ccc(C(F)(F)F)c(F)c3)CCC2)cc1` showed a concentration for half-maximal inhibition (IC50) in assay [3] of 14.5 µM.

Consider `COc1ccc(C2=C(c3ccc(S(N)(=O)=O)cc3)CCC2)cc1Cl`, for which the inhibition in vivo at 30 mg/kg in the assay listed under Rattus norvegicus [1] is 32%. Further, the inhibition in vivo at 1 mg/kg in the assay listed under Rattus norvegicus [2] worked out at 25%.

Take `NS(=O)(=O)c1ccc(C2=C(c3ccc(Cl)c(Cl)c3)CCC2)cc1`: the inhibition in vivo at 30 mg/kg in the assay filed under Rattus norvegicus [1] came to 31%. The inhibition in vivo at 1 mg/kg in the assay filed under Rattus norvegicus [2] is 83%.

As for `CN(C)c1ccc(C2=C(c3ccc(S(N)(=O)=O)cc3)CCC2)cc1Cl`, half-maximal inhibition in assay [3] (IC50) was put at 1.8 µM.

Consider `COc1ccc(C2=C(c3ccc(S(N)(=O)=O)cc3)CCC2)cc1F`, for which the inhibition in vivo at 1 mg/kg in the assay listed under Rattus norvegicus [2] worked out at 25%.

Take `COc1ccc(C2=C(c3ccc(S(N)(=O)=O)cc3)CCC2)cc1`: the inhibition in vivo at 30 mg/kg in the assay filed under Rattus norvegicus [1] came to 10%. For the compound `CS(=O)(=O)c1ccc(C2=C(c3ccc(Cl)c(Cl)c3)CCC2)cc1`, the inhibition in vivo at 1 mg/kg in the assay listed under Rattus norvegicus [2] was found to be 45%.

In assay [3], `NS(=O)(=O)c1ccc(C2=C(c3ccc(F)c(Cl)c3)CCC2)cc1` had a 50% inhibitory concentration (IC50) of 5.1 µM. In the assay filed under Rattus norvegicus [1], the inhibition in vivo at 30 mg/kg came out at 43.3%. Further, in the assay listed under Rattus norvegicus [2], the inhibition in vivo at 1 mg/kg turned out to be 81.5%. With `NS(=O)(=O)c1ccc(C2=C(c3ccc(F)cc3)CCC2)cc1`, in the assay listed under Rattus norvegicus [1], the inhibition in vivo at 30 mg/kg amounted to 45.3%. Moreover, the inhibition in vivo at 1 mg/kg in the assay filed under Rattus norvegicus [2] was found to be 79%. In assay [3], `CS(=O)(=O)Nc1cc2c(cc1Sc1ccc(F)cc1F)C(=O)CC2` gave a 50% inhibitory concentration (IC50) above 10 µM. In the case of `COc1c(Cl)cc(C2=C(c3ccc(S(C)(=O)=O)cc3)CCC2)cc1Cl`, the IC50 in assay [3] is above 100 µM. `COc1c(Cl)cc(C2=C(c3ccc(S(N)(=O)=O)cc3)CCC2)cc1Cl` displayed an IC50 in assay [3] of 71.6 µM. As to `CS(=O)(=O)c1ccc(C2=C(c3ccc(F)c(Cl)c3)CCC2)cc1`, the inhibition in vivo at 30 mg/kg in the assay listed under Rattus norvegicus [1] turned out to be 40%. The compound `CS(=O)(=O)c1ccc(C2=C(c3ccc(C(F)(F)F)c(F)c3)CCC2)cc1` gave a concentration for half-maximal inhibition (IC50) in assay [3] above 100 µM.

`NS(=O)(=O)c1ccc(C2=C(c3cc(F)c(F)c(F)c3)CCC2)cc1`: the IC50 in assay [3] was above 100 µM. With `CS(=O)(=O)c1ccc(C2=C(c3ccc(Cl)cc3)CCC2)cc1`, the inhibition in vivo at 30 mg/kg in the assay filed under Rattus norvegicus [1] was determined as 49%. Moreover, the inhibition in vivo at 1 mg/kg in the assay listed under Rattus norvegicus [2] was 21%. In assay [3], `CS(=O)(=O)c1ccc(C2=C(c3cc(F)c(F)c(F)c3)CCC2)cc1` returned a 50% inhibitory concentration (IC50) above 100 µM. `CS(=O)(=O)c1ccc(C2=C(c3ccc(F)c(C(F)(F)F)c3)CCC2)cc1` returned a concentration for half-maximal inhibition (IC50) in assay [3] above 100 µM. In assay [3], `NS(=O)(=O)c1ccc(C2=C(c3ccc4c(c3)OCO4)CCC2)cc1` came in with an IC50 of 1.9 µM. `CS(=O)(=O)c1ccc(C2=C(c3ccc(F)cc3)CCC2)cc1` [SC-57666]: in the assay listed under Rattus norvegicus [1], the inhibition in vivo at 30 mg/kg was 45.3%. In the assay listed under Rattus norvegicus [2], the inhibition in vivo at 1 mg/kg was determined as 29.3%.
